{"source": "patent US20130217722A1", "about": "“NOVEL COMPOUND USEFUL FOR THE TREATMENT OF DEGENERATIVE AND INFLAMMATORY DISEASES” (priority 2012, published 2013)", "key": {"[1]": {"test_system": "rat CIA model", "assay": "Rat collagen induced arthritis (CIA) model", "assay_type": "in vivo", "details": "p.o., therapeutic dosing day 16 to day 30", "experimental": "Completed Freund's adjuvant (CFA) and incomplete Freund's adjuvant (IFA) were purchased from Difco. Bovine collagen type II (CII), lipopolysaccharide (LPS), and Enbrel was obtained from Chondrex (Isle d'Abeau, France); Sigma (P4252, L'Isle d'Abeau, France), Whyett (25 mg injectable syringe, France) Acros Organics (Palo Alto, Calif.), respectively. All other reagents used were of reagent grade and all solvents were of analytical grade.\nDark Agouti rats (male, 7-8 weeks old) were obtained from Harlan Laboratories (Maison-Alfort, France). Rats were kept on a 12 h light/dark cycle (0700-1900). Temperature was maintained at 22° C., and food and water were provided ad libitum.\nOne day before the experiment, CII solution (2 mg/mL) was prepared with 0.05 M acetic acid and stored at 4° C. Just before the immunization, equal volumes of adjuvant (IFA) and CII were mixed by a homogenizer in a pre-cooled glass bottle in an ice water bath. Extra adjuvant and prolonged homogenization may be required if an emulsion is not formed. […]\nArthritis is scored according to the method of Khachigian 2006, Lin et al 2007 and Nishida et al. 2004). […]\nThe area under the curve (AUC) from day 1 to day 14 was calculated for each individual rat. The AUC of each animal was divided by the average AUC obtained for the vehicle in the study from which the data on that animal was obtained and multiplied by 100 (i.e. the AUC was expressed as a percentage of the average vehicle AUC per study).\nThe clinical score difference for each animal was divided by the average clinical score difference obtained for the vehicle in the study from which the data on that animal was obtained and multiplied by 100 (i.e. the difference was expressed as a percentage of the average clinical score difference for the vehicle per study).\nClinically, body weight loss is associated with arthritis (Shelton et al., 2005; Rall, 2004; Walsmith et al., 2004). […] The change in body weight (%) after onset of arthritis was calculated as follows: […]"}, "[2]": {"test_system": "CTLL2 cells", "assay": "CTLL2 viability assay (IL2-dependent)", "assay_type": "cell-based", "details": "ATP content", "experimental": "The protocol describes the methods to analyse the activity of compounds on the ability to sustain the IL2-dependent viability of CTLL2\nNegative control is a DMSO dilution, positive control at 10 μM. Final DMSO concentration is 0.1%."}, "[3]": {"molecular_target": "T1, JAK1 (Homo sapiens, UniProt P23458)", "T1 construct": "Recombinant human JAK1 (catalytic domain, amino acids 866-1154; catalog number PV4774) was purchased from Invitrogen; purchased Invitrogen PV4774", "T1 sequence (P23458 866-1154)": "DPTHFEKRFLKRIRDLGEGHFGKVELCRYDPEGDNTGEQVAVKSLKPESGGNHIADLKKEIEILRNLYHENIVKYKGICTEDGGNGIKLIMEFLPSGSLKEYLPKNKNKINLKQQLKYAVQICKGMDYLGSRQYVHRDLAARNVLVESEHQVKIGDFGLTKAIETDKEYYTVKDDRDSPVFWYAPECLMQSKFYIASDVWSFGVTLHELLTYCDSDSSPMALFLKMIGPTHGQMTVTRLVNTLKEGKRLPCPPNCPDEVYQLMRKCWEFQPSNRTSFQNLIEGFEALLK", "assay": "JAK1 Ulight-JAK1 peptide assay", "assay_type": "biochemical", "experimental": "Recombinant human JAK1 (catalytic domain, amino acids 866-1154; catalog number PV4774) was purchased from Invitrogen. 1 ng of JAK1 was incubated with 20 nM Ulight-JAK1(tyr1023) peptide (Perkin Elmer catalog number TRF0121) in kinase reaction buffer (25 mM MOPS pH6.8, 0.01% Brij-35, 5 mM MgCl2, 2 mM DTT, 7 μM ATP) with or without 4 μL containing test compound or vehicle (DMSO, 1% final concentration), in a total volume of 20 μL, in a white 384 Opti plate (Perkin Elmer, catalog number 6007290). […] Readout is performed using the Envision with excitation at 320 nm and measuring emission at 615 nm (Perkin Elmer). Kinase activity was calculated by subtracting relative fluorescence units (RFU) obtained in the presence of a positive control inhibitor (10 μM staurosporine) from RFU obtained in the presence of vehicle. The ability of a test compound to inhibit this activity was determined as:\nPercentage inhibition=((RFU determined for sample with test compound present−RFU determined for sample with positive control inhibitor) divided by (RFU determined in the presence of vehicle−RFU determined for sample with positive control inhibitor))*100.\nDose dilution series were prepared for the compounds enabling the testing of dose-response effects in the JAK1 assay and the calculation of the IC50 for the compound. […] The data are expressed as the average IC50 from the assays ±standard error of the mean."}}, "note": "Where “and” joins values, the source holds several entries; their conditions need not be identical. Equal values may be shown once.", "data": [{"smiles": "CCc1cc(C2=CCN(C(=O)CC#N)CC2)ccc1N(C)c1cc2c(cn1)ncn2C", "note": "[Compound 1]", "values": [{"measurement": "efficacy in rat CIA model", "setting": "[1]; 1 mg/kg", "value": "statistically significant efficacy"}, {"measurement": "efficacy in rat CIA model", "setting": "[1]; 3 mg/kg", "value": "statistically significant efficacy"}, {"measurement": "efficacy in rat CIA model", "setting": "[1]; 10 mg/kg", "value": "statistically significant efficacy"}, {"measurement": "IC50", "setting": "[2]; 24 h, listed as compound of the invention", "value": 2440, "unit": "nM"}, {"measurement": "IC50", "setting": "[2]; Mus musculus, CTLL-2, 24 h", "value": 1810, "unit": "nM"}, {"measurement": "selectivity for JAK1 vs the other JAK family members (JAK2, JAK3, and TYK2)", "setting": "[3]", "value": "at least 9 fold"}, {"measurement": "IC50", "setting": "[3]; Ulight-JAK1(tyr1023) peptide, 7 μM ATP, individual determinations, read-out: IC50 against JAK1", "value": "1.37 nM and 1.47 nM and 1.6 nM and 3.08 nM and 1.13 nM and 1.45 nM (2×) and 1.92 nM and 2.34 nM and 2.42 nM and 1.42 nM and 4.09 nM and 4.14 nM and 3.63 nM and 3.46 nM and 2.31 nM and 0.815 nM and 6.84 nM and 6.14 nM and 0.756 nM"}]}]}
